These results are taken from patent US7446122B2, “Substituted indole derivatives” (Cephalon, Inc., priority 2003, dated 2008).

In one assay the target is T1, COX-1 (Homo sapiens, UniProt P23219).
T1 construct: endogenous in cells; host or cells: human platelets
The assay is described as follows: Cox-1 assay: PGE2 formation in human platelets. The class given is cell-based. To be noted: compounds are screened at 10 μM. On the procedure:
Test compound and/or vehicle is incubated with human platelets (10^8/ml) containing the phospholipase inhibitor MLnFP (100 μM) for 15 minutes at 37° C. Arachidonic acid (100 μM) is then added for a further 15 minute incubation period. The reaction is stopped by addition of 1 N HCl and neutralized with 1N NaOH. PGE2 levels in the supernatant are determined using the Amersham EIA kit. […]

The target of assay [1] is T2, Cyclooxygenase-2 (human recombinant, expressed in Sf9 cell) (Homo sapiens, UniProt P35354).
T2 construct: purchased Cayman 60122; host or cells: Sf9 cell
T2 sequence (P35354 18-604): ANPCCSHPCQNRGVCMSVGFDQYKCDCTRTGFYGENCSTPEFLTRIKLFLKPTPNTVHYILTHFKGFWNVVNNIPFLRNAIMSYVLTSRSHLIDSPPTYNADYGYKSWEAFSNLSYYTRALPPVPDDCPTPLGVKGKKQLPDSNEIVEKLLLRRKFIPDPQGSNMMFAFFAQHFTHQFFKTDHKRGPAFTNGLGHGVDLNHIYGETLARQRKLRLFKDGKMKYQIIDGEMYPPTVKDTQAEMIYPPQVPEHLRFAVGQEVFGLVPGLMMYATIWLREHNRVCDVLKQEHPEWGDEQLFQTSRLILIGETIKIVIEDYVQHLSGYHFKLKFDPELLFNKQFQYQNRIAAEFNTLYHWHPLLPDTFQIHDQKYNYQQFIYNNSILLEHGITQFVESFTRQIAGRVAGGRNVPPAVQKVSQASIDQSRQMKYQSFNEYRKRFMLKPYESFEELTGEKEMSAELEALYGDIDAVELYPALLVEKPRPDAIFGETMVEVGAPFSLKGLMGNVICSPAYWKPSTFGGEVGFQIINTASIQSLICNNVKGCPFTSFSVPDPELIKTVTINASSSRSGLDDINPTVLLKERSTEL
Description: Cox-2 assay: human recombinant cyclooxygenase-2, PGE2 by EIA. The class given is biochemical. To be noted: human recombinant enzyme; compounds are screened at 10 μM. On the procedure: Test compound and/or vehicle is pre-incubated with 0.11 U cyclooxygenase-2, 1 mM reduced glutathione (GSH), 500 μM phenol and 1 μM hematin for 15 minutes at 37° C. The reaction is initiated by addition of 0.3 μM arachidonic acid as substrate in Tris-HCl pH 7.7 and terminated after a 5 minute incubation at 37° C. by addition of 1N HCl. Following centrifugation, substrate conversion to PGE2 is measured by an Amersham EIA kit. Compounds are screened at 10 μM. […] J. Physiol.

For assay [2], the system named is prostate cancer cell line (LNCaP). Description: Cell cytotoxicity, MTT assay, LNCaP. The class given is cell-based. To be noted: Homo sapiens, 72 h, three days incubation. How it is done:
(§1) Normal prostate cells (PREC, Cambrex East Rutherford N.J.), prostate cancer cell line (LNCaP, ATCC), PBL (peripheral blood leukocytes-buffy coat San Diego Blood Bank), and primary CLL cells were incubated for one to two days in RPMI-1640 and 10% FBS (fetal bovine serum). They were plated in 96-well plates at 100,000 cells/well. Titrated concentrations of the compound to be tested were added to the culture medium. The cells were incubated three days at 37° C., 5% CO2. Viability of the cells was assayed by standard MTT assay. Each drug concentration was done in duplicate. MTT assay: 10 μl of 12 mM 3,[4,5-dimethylthiazol-2-yl]-2,5-diphenyltetrazolium bromide (MTT) (SIGMA) was added to each well. The cells were incubated at 37° C., 5% CO2 for 4 hours. 100 μl of 20% SDS, 0.015M HCl was added to each well and the cells were incubated overnight. The plates were read at absorbance 595 nm.

The subject of a further assay is primary CLL cells. Description: Cell cytotoxicity, MTT assay, primary CLL cells. To be noted: 72 h, three days incubation. The class given is cell-based. On the procedure:
as §1

For assay [3], the system named is Daudi human Burkitt Lymphoma derived tumors. Description: Daudi lymphoma murine xenograft model, efficacy. The class given is in vivo, male SCID mice. To be noted: for mean tumor volume at termination of the study: daily Monday to Friday for two weeks, control 1583 mm^3. How it is done: Male SCID mice, 6-8 weeks of age, obtained from Simonsen Laboratories, Inc. (Gilroy, Calif.) were housed in groups of five.
The Daudi human Burkitt Lymphoma cells were obtained from American Type Culture Collection and were inoculated subcutaneously (1.0×10^7 cells/mouse) on the flanks of SCID mice. After the tumors reached approximately 100 mm^3 treatment was initiated.
Body weights and tumor volume of all mice were measured and recorded twice weekly. Tumors were measured in three dimensions and volume calculated using the formula: […]. Time for the tumors (days) to grow to 4× and 8× the initial volume at dosing were assessed. Study compounds were administered at 125 or 250 mg/kg/day (M-F) via oral gavage until the end of the study.
The efficacy of chlorambucil (2 and 3 mg/kg/d), (R-etodoalc) (400 mg/kg/d) and compound 47 (250 mg/kg/d), compound 26 (250 mg/kg/d), and compound 1 (125 mg/kg/d) against Daudi derived tumors in male SCID mice were studied. R-etodolac and compounds 1, 26 and 47 were prepared in sesame oil. Both chlorambucil (ip, 0.1 ml) and compounds of the invention (per os [p.o.], 0.31 ml) were dosed daily (Monday to Friday) for two weeks. SDX-101 (0.31 ml) was dosed p.o. daily until the end of the study. […] However, all treated mice recovered after Day 2 and maintained their weights. There was no body weight loss observed in other treatment groups. At termination of the study, the control group mean tumor volume was 1583 mm^3. The mean tumor volume of chlorambucil treated groups were 864 and 766 mm^3 with 2 and 3 mg/kg/d chlorambucil treatment, respectively. The mean tumor volume of R-etodolac and compounds 1, […] and 47 were 802, 996, 1011, and 1157 mm^3 with compounds 47, 36, 1 and R-etodolac treatment, respectively. […] At termination of the study, tumor samples along with liver, kidney, and spleen samples from each group were collected and fixed in 10% buffered formalin for histopathology.

T1 sequence (P23219 24-599): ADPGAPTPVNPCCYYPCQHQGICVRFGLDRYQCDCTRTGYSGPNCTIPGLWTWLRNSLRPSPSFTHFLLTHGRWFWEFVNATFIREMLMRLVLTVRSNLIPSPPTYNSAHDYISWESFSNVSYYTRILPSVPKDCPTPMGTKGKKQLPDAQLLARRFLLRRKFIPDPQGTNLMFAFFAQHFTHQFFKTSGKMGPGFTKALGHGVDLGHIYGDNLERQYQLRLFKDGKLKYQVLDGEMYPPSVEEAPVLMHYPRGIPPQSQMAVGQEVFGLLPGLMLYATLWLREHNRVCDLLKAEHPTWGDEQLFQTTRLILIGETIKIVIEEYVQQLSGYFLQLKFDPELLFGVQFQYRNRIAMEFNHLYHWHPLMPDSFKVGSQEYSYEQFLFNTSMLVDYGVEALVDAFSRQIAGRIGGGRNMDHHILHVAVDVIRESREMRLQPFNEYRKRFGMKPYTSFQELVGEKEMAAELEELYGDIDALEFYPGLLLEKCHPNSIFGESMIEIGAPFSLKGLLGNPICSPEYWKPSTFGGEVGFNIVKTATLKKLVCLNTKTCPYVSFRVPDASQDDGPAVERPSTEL

Consider `CCc1cc(-c2ccc(F)cc2)cc2c3c([nH]c12)C(CC)(CCO)OCC3` (stereo not drawn) [Compound 7], for which the inhibition at 10 µM was 94% against COX-1 and 99% in assay [1]. For the same molecule, the midpoint of inhibition in assay [2], the IC50, lay at 12 µM. As for `CCC1(CCO)OCCc2c1[nH]c1ccc(F)cc21` (stereo not drawn) [Compound 40, 2-(1-ETHYL-6-FLUORO-1,3,4,9-TETRAHYDRO-PYRANO[3,4-b]INDOL-1-YL)-ETHANOL], the IC50 in the assay with primary CLL cells turned out to be 185 µM; in assay [2] it was 80 µM. In the case of `CCc1cc(-c2cc3ccccc3s2)cc2c3c([nH]c12)C(CC)(CCO)OCC3` (stereo not drawn) [Compound 52], the results for the inhibition at 10 µM (against COX-1; in assay [1]) were 78% and 97%, respectively. The molecule also gave an IC50 in assay [2] of 9 µM. As for `CCc1cc(-c2ccc(C)cc2)cc2c3c([nH]c12)C(CC)(CCO)OCC3` (stereo not drawn) [Compound 53], the inhibition at 10 µM stood at 90% at COX-1 and 96% in assay [1]. In addition, the IC50 in assay [2] came out at 11 µM.

As for `CCC1(CCO)OCCc2c1[nH]c1ccccc21` (stereo not drawn) [Compound 22, (1-ETHYL-1,3,4,9-TETRAHYDRO-PYRANO[3,4-b]INDOL-1-YL)-ETHANOL], in assay [2], the IC50 came to 163 µM. `CCC1(CCO)OCCc2c1[nH]c1c(F)cccc21` (stereo not drawn) [Compound 26, 2-(1-ETHYL-8-FLUORO-1,3,4,9-TETRAHYDRO-PYRANO[3,4-b]INDOL-1-YL)-ETHANOL]: half-maximal inhibition in assay [2] (IC50) required 95 µM. As for `CCc1cc(-c2ccc3c(c2)OCO3)cc2c3c([nH]c12)C(CC)(CCO)OCC3` (stereo not drawn) [Compound 9], the inhibition at 10 µM was 88% against COX-1 and 90% in assay [1]. In addition, the IC50 in assay [2] stood at 10 µM. As to `CCC1(CCO)OCCc2c1[nH]c1ccc(OC)cc21` (stereo not drawn) [Compound 23, 2-(1-ETHYL-6-METHOXY-1,3,4,9-TETRAHYDRO-PYRANO[3,4-b]INDOL-1-YL)-ETHANOL], the IC50 in assay [2] amounted to 70 µM. `CCC1(CCO)OCCc2c1[nH]c1c(Br)cccc21` (stereo not drawn) [Compound 28, 2-(8-BROMO-1-ETHYL-1,3,4,9-TETRAHYDRO-PYRANO[3,4-b]INDOL-1-YL)-ETHANOL] gave an IC50 in assay [2] of 25 µM. Turning to `CCc1cccc2c3c([nH]c12)C(CC)(CC(=O)NC)OCC3` (stereo not drawn) [Compound 33], the IC50 in the assay on primary CLL cells is 98 µM; in assay [2], 132 µM. Regarding `CCC1(CCO)OCCc2c1[nH]c1c(C(C)C)cc(CCC(=O)O)cc21` (stereo not drawn) [Compound 56, 3-(1-ETHYL-1,3,4,9-TETRAHYDRO-1-(2-HYDROXYETHYL)-8-ISOPROPYLPYRANO[3,4-b]INDOL-6-YL)PROPANOIC ACID], the concentration for half-maximal inhibition (IC50) in assay [2] was found to be 235 µM. In the case of `CCC1(CCO)OCCc2c1[nH]c1c(C(C)C)cc(Br)cc21` (stereo not drawn) [Compound 54, 2-(6-BROMO-1-ETHYL-1,3,4,9-TETRAHYDRO-8-ISOPROPYLPYRANO[3,4-b]INDOL-1-yl)ETHANOL], the midpoint of inhibition in assay [2], the IC50, lay at 7 µM.

`CCc1cccc2c3c([nH]c12)C1(CCC(CO)CC1)OCC3` (stereo not drawn) [Compound 34, [8′-ETHYL-4′,9′-DIHYDRO-3′H-SPIRO(CYCLOHEXANE-1,1′-PYRANO[3,4-b]INDOL)-4-YL]-METHANOL]: in assay [2], the IC50 was found to be 20 µM. For the molecule `CCc1cccc2c3c([nH]c12)C(CC)(CC(=O)N(C)C)OCC3` (stereo not drawn) [Compound 48], the figures for the IC50 (with primary CLL cells; in assay [2]) were 240 µM and 60 µM, respectively. Molecule `CCC1(CCO)OCCc2c1[nH]c1cc(Cl)ccc21` (stereo not drawn) [Compound 44, 2-(7-CHLORO-1-ETHYL-1,3,4,9-TETRAHYDRO-PYRANO[3,4-b]INDOL-1-YL)-ETHANOL] came in with an IC50 in assay [2] of 60 µM.

As to `CCc1c(Br)ccc2c3c([nH]c12)C(CC)(CCO)OCC3` (stereo not drawn) [Compound 51, 2-(7-BROMO-1,8-DIETHYL-1,3,4,9-TETRAHYDROPYRANO[3,4-b]INDOL-1-YL)ETHANOL], inhibition in assay [2] was half-maximal at 10 µM (IC50). Molecule `CCC1(CCO)OCCc2c1[nH]c1c(C(C)C)cc(CCCO)cc21` (stereo not drawn) [Compound 57, 3-(1-ETHYL-1,3,4,9-TETRAHYDRO-1-(2-HYDROXYETHYL)-8-ISOPROPYLPYRANO[3,4-B]INDOL-6-YL)PROPAN-1-OL] displayed an IC50 in assay [2] of 110 µM.

As to `CCc1cccc2c3c([nH]c12)C(CCO)(c1ccccc1)OCC3` (stereo not drawn) [Compound 32, 2-(8-ETHYL-1-PHENYL-1,3,4,9-TETRAHYDRO-PYRANO[3,4-b]INDOL-1-YL)-ETHANOL], the IC50 was 250 µM in the assay on primary CLL cells and 15 µM in assay [2]. In the case of `CCC1(CCO)OCCc2c1[nH]c1cc(F)ccc21` (stereo not drawn) [Compound 43, 2-(1-ETHYL-7-FLUORO-1,3,4,9-TETRAHYDRO-PYRANO[3,4-b]INDOL-1-YL)-ETHANOL], half-maximal inhibition in assay [2] (IC50) required 77 µM. For `O=C(O)CCCc1ccc(N(CCCl)CCCl)cc1` [Chlorambucil, chlorambucil, reference compound], the entries for the “mean tumor volume at termination of the study” value in assay [3] (chlorambucil 2 mg/kg/d ip) and in assay [3] (chlorambucil 3 mg/kg/d ip) were 864 mm^3 and 766 mm^3, respectively. For the same molecule, the “4× Growth” value in assay [3] (time for the tumors to grow to 4× the initial volume at dosing, control 8.9 d) is 16 days. In assay [3] (time for the tumors to grow to 8× the initial volume at dosing, control 14.5 d), the “8× Growth” value amounted to 21 days. In assay [2], `CCOC(=O)CCc1cc(C(C)C)c2[nH]c3c(c2c1)CCOC3(CC)CCO` (stereo not drawn) [Compound 55, ETHYL 3-(1-ETHYL-1,3,4,9-TETRAHYDRO-1-(2-HYDROXYETHYL)-8-ISOPROPYLPYRANO[3,4-B]INDOL-6-YL)PROPANOATE] returned an IC50 of 18 µM. In other words, the double-digit micromolar range. As for `CCC1(CCO)OCCc2c1[nH]c1ccc(Cl)cc21` (stereo not drawn) [Compound 41, 2-(6-CHLORO-1-ETHYL-1,3,4,9-TETRAHYDRO-PYRANO[3,4-b]INDOL-1-YL)-ETHANOL], the IC50 in the assay with primary CLL cells was determined as 110 µM; in assay [2], 51 µM. Turning to `CCc1cccc2c3c([nH]c12)C(CCO)(C(C)C)OCC3` (stereo not drawn) [Compound 31, 2-(8-ETHYL-1-ISOPROPYL-1,3,4,9-TETRAHYDRO-PYRANO[3,4-b]INDOL-1-YL)-ETHANOL], the results for the IC50 (in the assay on primary CLL cells; in assay [2]) were 244 µM and 37 µM, respectively.

`CCC1(CCO)OCCc2c1[nH]c1c(C(F)(F)F)cccc21` (stereo not drawn) [Compound 37, 2-(1-ETHYL-8-TRIFLUOROMETHYL-1,3,4,9-TETRAHYDRO-PYRANO[3,4-b]INDOL-1-YL)-ETHANOL] returned an IC50 in assay [2] of 60 µM. That is a double-digit micromolar value. `CCCC1(CCO)OCCc2c1[nH]c1c(CC)cccc21` (stereo not drawn) [Compound 30, 2-(8-ETHYL-1-PROPYL-1,3,4,9-TETRAHYDRO-PYRANO[3,4-b]INDOL-1-YL)-ETHANOL] came in with an IC50 in assay [2] of 100 µM.
